Data set [1] deals with HGC-27. As to the kind of experiment: Induction of apoptosis in human HGC-27 cells assessed as viable cells at 2 uM incubated for 48 hrs by annexin V FITC/propidium iodide staining based flow cytometry (reference value: 93.0 %). Conditions: read-out: Activity. The format is functional. (In flow cytometry, cells or beads pass a laser one at a time.)
For data set [2], the system named is HGC-27. As to the kind of experiment: Induction of apoptosis in human HGC-27 cells assessed as early apoptotic cells at 2 uM incubated for 48 hrs by annexin V FITC/propidium iodide staining based flow cytometry (reference value: 0.66 %). The format is functional.
For data set [3], the system named is HGC-27. Put plainly: Induction of cell cycle arrest in human HGC-27 cells assessed as reduction in accumulation of cells at S phase at 0.5 to 8 uM incubated for 24 hrs by PI staining based flow cytometry analysis. Particulars: dose 0.5-8 µM. The format is functional.
The test system of data set [4] is HGC-27. As to the kind of experiment: Induction of apoptosis in human HGC-27 cells assessed as upregulation in Bax expression at 0.5 to 8 uM incubated for 48 hrs by Western blot analysis. The format is functional, cell-based. Particulars: dose 0.5-8 µM. (In general: In western blotting, separated proteins are transferred to a membrane and probed.)
Data set [5] relates to MGC-803. As to the kind of experiment: Induction of cell cycle arrest in human MGC-803 cells assessed as reduction in accumulation of cells at S phase at 2.5 to 10 uM incubated for 24 hrs by PI staining based flow cytometry analysis. The format is functional. Particulars: dose 2.5-10 µM.
In data set [6] the test system is HGC-27. Put plainly: Induction of apoptosis in human HGC-27 cells assessed as viable cells at 8 uM incubated for 48 hrs by annexin V FITC/propidium iodide staining based flow cytometry (reference value: 93.0 %). It counts as functional. Particulars: read-out: Activity.
Data set [7] concerns MGC-803. Put plainly: Induction of apoptosis in human MGC-803 cells assessed as late apoptotic cells at 2.5 uM incubated for 48 hrs by annexin V FITC/propidium iodide staining based flow cytometry (reference value: 4.07 %). It counts as functional.
The subject of data set [8] is HGC-27. As to the kind of experiment: Induction of apoptosis in human HGC-27 cells assessed as upregulation in cytochrome c expression at 0.5 to 8 uM incubated for 48 hrs by Western blot analysis. The format is functional, cell-based. Conditions: dose 0.5-8 µM.
Data set [9] deals with HGC-27. As to the kind of experiment: Induction of apoptosis in human HGC-27 cells assessed as late apoptotic cells at 8 uM incubated for 48 hrs by annexin V FITC/propidium iodide staining based flow cytometry (reference value: 5.14 %). The format is functional.
Data set [10] relates to HGC-27. Put plainly: Induction of apoptosis in human HGC-27 cells assessed as upregulation in cleaved caspase-3 expression at 0.5 to 8 uM incubated for 48 hrs by Western blot analysis. It counts as functional, cell-based. Particulars: dose 0.5-8 µM.
In data set [11] the test system is HGC-27. Put plainly: Induction of cell cycle arrest in human HGC-27 cells assessed as upregulation of p27 expression at 0.5 to 8 uM incubated for 48 hrs by Western blot analysis. It counts as functional, cell-based. Conditions: dose 0.5-8 µM.
Data set [12] in a line: Acute toxicity in Kunming mouse assessed as effect on liver pathology at 1000 mg/kg, po measured after 14 days. It counts as organism-based. Particulars: in vivo, 336 h, time 14 day.
Data set [13] in a line: Toxicity in BALB/c mouse xenografted with human HGC-27 cells assessed as platelet distribution width at 75 mg/kg, po bid for 19 days. It counts as organism-based. Conditions: in vivo, 456 h, time 19 day. A general note: A xenograft is tissue or cells of one species grown in another, often human tumour cells in immunodeficient mice.
Data set [14] relates to HGC-27. Put plainly: Induction of cell cycle arrest in human HGC-27 cells assessed as upregulation of p27 expression at 0.1 to 1.6 uM incubated for 48 hrs by Western blot analysis. It counts as functional, cell-based. Particulars: dose 0.1-1.6 µM.
The nature of data set [15]: Toxicity in BALB/c mouse xenografted with human HGC-27 cells assessed as body weight loss at 75 to 150 mg/kg, po bid administered for 19 days and measured every other day. It counts as organism-based. Conditions: in vivo, 456 h, dose 75-150 mg/kg, time 19 day.
The test system of data set [16] is MGC-803. Put plainly: Induction of cell cycle arrest in human MGC-803 cells assessed as reduction in accumulation of cells at S phase at 5 to 20 uM incubated for 24 hrs by PI staining based flow cytometry analysis. The format is functional. Conditions: dose 5-20 µM.
Data set [17] has as its system HGC-27. As to the kind of experiment: Induction of apoptosis in human HGC-27 cells assessed as viable cells at 0.1 uM incubated for 48 hrs by annexin V FITC/propidium iodide staining based flow cytometry (reference value: 93.0 %). It counts as functional. Particulars: read-out: Activity.
Data set [18] relates to HGC-27. As to the kind of experiment: Induction of apoptosis in human HGC-27 cells assessed as necrotic cells at 0.4 uM incubated for 48 hrs by annexin V FITC/propidium iodide staining based flow cytometry (reference value: 1.24 %). The format is functional.
For data set [19], the system named is HGC-27. As to the kind of experiment: Induction of apoptosis in human HGC-27 cells assessed as upregulation in cleaved caspase-3 expression at 0.1 to 1.6 uM incubated for 48 hrs by Western blot analysis. It counts as functional, cell-based. Particulars: dose 0.1-1.6 µM.
Data set [20] can be described thus: Toxicity in BALB/c mouse xenografted with human HGC-27 cells assessed as platelet level at 75 mg/kg, po bid for 19 days. It counts as organism-based. Particulars: in vivo, 456 h, time 19 day.
The nature of data set [21]: Toxicity in BALB/c mouse xenografted with human HGC-27 cells assessed as monocyte level at 150 mg/kg, po bid for 19 days. It counts as organism-based. Conditions: in vivo, 456 h, time 19 day.
For data set [22], the system named is HGC-27. Put plainly: cells. It counts as functional, cell-based. Particulars: Homo sapiens, HGC-27, 72 h.
Description: Cytotoxicity against human HGC-27 cells assessed as inhibition of cell growth incubated for 72 hrs by MTT assay
The test system of data set [23] is HGC-27. As to the kind of experiment: Induction of cell cycle arrest in human HGC-27 cells assessed as reduction in accumulation of cells at S phase at 0.1 to 1.6 uM incubated for 24 hrs by PI staining based flow cytometry analysis. The format is functional. Conditions: dose 0.1-1.6 µM.
A short description of data set [24]: Toxicity in BALB/c mouse xenografted with human HGC-27 cells assessed as platelet level at 150 mg/kg, po bid for 19 days. The format is organism-based. Conditions: in vivo, 456 h, time 19 day.
Data set [25] concerns MGC-803. As to the kind of experiment: cells. The format is functional, cell-based. Particulars: Homo sapiens, MGC-803, 72 h.
Description: Cytotoxicity against human MGC-803 cells assessed as inhibition of cell growth incubated for 72 hrs by MTT assay
Data set [26] concerns HGC-27. Put plainly: Induction of cell cycle arrest in human HGC-27 cells assessed as upregulation of p21 expression at 0.1 to 1.6 uM incubated for 48 hrs by Western blot analysis. It counts as functional, cell-based. Conditions: dose 0.1-1.6 µM.
The subject of data set [27] is HGC-27. As to the kind of experiment: Induction of apoptosis in human HGC-27 cells assessed as necrotic cells at 0.1 uM incubated for 48 hrs by annexin V FITC/propidium iodide staining based flow cytometry (reference value: 1.24 %). The format is functional.
Data set [28] in a line: Toxicity in BALB/c mouse xenografted with human HGC-27 cells assessed as granulocyte level at 150 mg/kg, po bid for 19 days. Conditions: in vivo, 456 h, time 19 day. It counts as organism-based.
A short description of data set [29]: Toxicity in BALB/c mouse xenografted with human HGC-27 cells assessed as hematocrit level at 150 mg/kg, po bid for 19 days. Particulars: in vivo, 456 h, time 19 day. It counts as organism-based.
The subject of data set [30] is HGC-27. Put plainly: Induction of apoptosis in human HGC-27 cells assessed as upregulation in cleaved caspase-9 expression at 0.1 to 1.6 uM incubated for 48 hrs by Western blot analysis. The format is functional, cell-based. Conditions: dose 0.1-1.6 µM.
Data set [31] is described as follows: Toxicity in BALB/c mouse xenografted with human HGC-27 cells assessed as platelet distribution width at 150 mg/kg, po bid for 19 days. The format is organism-based. Particulars: in vivo, 456 h, time 19 day.
Data set [32] in a line: Toxicity in BALB/c mouse xenografted with human HGC-27 cells assessed as RBC level at 150 mg/kg, po bid for 19 days. The format is organism-based, Erythrocyte. Conditions: in vivo, 456 h, time 19 day.
For data set [33], the system named is MGC-803. Put plainly: Induction of apoptosis in human MGC-803 cells assessed as viable cells at 20 uM incubated for 48 hrs by annexin V FITC/propidium iodide staining based flow cytometry (reference value: 94.4 %). The format is functional. Particulars: read-out: Activity.
Data set [34] concerns HGC-27. Put plainly: Induction of apoptosis in human HGC-27 cells assessed as viable cells at 1.6 uM incubated for 48 hrs by annexin V FITC/propidium iodide staining based flow cytometry (reference value: 93.0 %). It counts as functional. Conditions: read-out: Activity.
Another data set has as its system SGC-7901. Put plainly: cells. The format is functional, cell-based. Conditions: Homo sapiens, SGC-7901, 72 h.
Data set [35] can be described thus: Acute toxicity in Kunming mouse assessed as effect on spleen pathology at 1000 mg/kg, po measured after 14 days. The format is organism-based. Conditions: in vivo, 336 h, time 14 day.

pIC50: −log10 of the molar value. “And” between values parts separate entries of the source, which are not always exact repeats. Equal entries are not always repeated. The source made the active and inactive calls. The calls are words filed in the database; no cut-off is given here.

Broadly, the pIC50 is −log10 of the IC50, conventionally taken in molar units. Low readings indicate a high IC50, high ones a low IC50.

Description for SGC-7901: Cytotoxicity against human SGC-7901 cells assessed as inhibition of cell growth incubated for 72 hrs by MTT assay

`O=C(NCc1ccc(NC(=O)c2ccccc2N2CCCC2)cc1)OCc1cccnc1`: the viability at 2 µM in the data set on HGC-27 [1] amounted to 30.4%. Besides, the Activity in the data set with HGC-27 [2] is on record as 1.59%; in the data set with MGC-803 [7], 14.6%; with HGC-27 [9], 49.1%. Further, the result in the data set on HGC-27 [3], in the data set on HGC-27 [4], in the data set on MGC-803 [5], with HGC-27 [8], in the data set with HGC-27 [10] and with HGC-27 [11] was Active. Besides, the viability at 8 µM in the data set with HGC-27 [6] was found to be 36.2%.
For `O=C(NCc1ccc(NC(=O)c2cc(F)ccc2N2CCCC2)cc1)OCc1cccnc1`, the Activity result was “Non-Toxic” in [12]; 16.93 in data set [13]; “Non-Toxic” in data set [15]; 5.43% in the data set on HGC-27 [18]; 1057.33 10^9/L in [20]; 1.7 10^9/L and 2.13% in data set [21]. Also, the Activity was 1711 10^9/L in [24]; 0.86% in the data set on HGC-27 [27]; 72.9 10^9/L and 90.67% in data set [28]; 55.38% in data set [29]; 17.45 in [31]; 10.34 10^12/L in data set [32]. Moreover, the Activity entry in [35] is reported as “Non-Toxic”. The result in the data set on HGC-27 [14], in the data set on MGC-803 [16], with HGC-27 [19], in the data set on HGC-27 [23], with HGC-27 [26] and in the data set on HGC-27 [30] was Active. For the same molecule, in the data set with HGC-27 [17], the viability at 0.1 µM was found to be 83.5%. Besides, the pIC50 in the data set with HGC-27 [22] is 6.55; in the data set on MGC-803 [25], 4.97; with SGC-7901 it was 4.35. Also, the viability at 20 µM in the data set with MGC-803 [33] came out at 60.7%. Besides, the viability at 1.6 µM in the data set on HGC-27 [34] stood at 13.4%.
